Experimental data from patent US20150272944A1, “NOVEL TRIGLYCERIDE REDUCING AGENT” (KOWA COMPANY, LTD., priority 2005, published 2015).
Read-outs that look alike come from different tables or passages of the source.

What was measured:
[1] = Plasma TG lowering effect in rats after 14 days repeated oral administration, blood taken after 22-hours fasting; assay type: in vivo, Wistar rat; conditions: single agent alone, rat, pitavastatin calcium 10 mg/kg, K-134 or cilostazol 100 mg/kg
Source text: To test effects of combination administration of the said agents, rats were used for the experiment. […] The vertical axis in FIG. 1 indicates concentration of plasma triglyceride (TG) (mg/dL). Administration groups: control; pitavastatin calcium (referred to as pitavastatin) alone; K-134 alone; cilostazol alone; combination of pitavastatin calcium (referred to as pitavastatin) and K-134; and combination of pitavastatin calcium (referred to as pitavastatin) and cilostazol, are listed from left to right.
Plasma TG lowering effect when pitavastatin calcium was administered in combination with K-134 or cilostazol was measured according to the following method 1-4.
A 7-week-old Wistar rat (CLEA Japan, Inc.) was housed in an animal room where light/dark cycle (light period with room lighting from 7.00 to 19.00), temperature of 23±3° C., and humidity of 55±15% were maintained through the experimental period, and solid feed (CLEA Japan, Inc.) and tap water were consumed freely.
Pitavastatin calcium, K-134 and cilostazol were each suspended in aqueous solution (1.0 mass %) of hydroxypropyl methyl cellulose (Shin-Etsu Chemical Co., Ltd.) and prepared in order that the administration dose was 1 mL/kg. The suspension was stored in a colored bottle and refrigerated at 4° C. Preparation was performed every seven days.
3. Test Method 36 rats were divided into 6 administration groups (each group consisted of 6 samples): (1) control; (2) pitavastatin calcium (10 mg/kg) alone; (3) K-134 (100 mg/kg) alone; (4) cilostazol (100 mg/kg) alone; (5) combination of pitavastatin calcium (10 mg/kg) and K-134 (100 mg/kg); and (6) combination of pitavastatin calcium (10 mg/kg) and cilostazol(100 mg/kg).
Pitavastatin was orally administered once daily at 4.00 pm for 14 days repeatedly, and K-134 or cilostazol was orally administered twice daily at 9.00 am and 4.00 pm for 14 days repeatedly. […] Blood sample was taken from each group after 22-hours fasting following the final administration in the afternoon, and plasma TG was measured. […]

[2] = diabetic rat; cited from earlier work
[3] = normal rat; cited from earlier work
[4] = clinical report, cited from earlier work

SMILES | hypotriglyceridemic effect in vivo [1] | hypotriglyceridemic effect [2] | hypotriglyceridemic effect [3] | TG level ([4]; 4-week administration in a subject) | TG level ([4]; 24-week administration)
O=C(NCCCOc1ccc2[nH]c(=O)ccc2c1)N(C1CC1)[C@@H]1CCCC[C@H]1O [K-134, (−)-6-[3[3-cyclopropyl-3-[(1R, 2R)-2-hydroxycyclohexyl]ureido]-propoxy]-2-(1H)-quinolinone] | little hypotriglyceridemic effect | – | – | – | –
O=C1CCc2cc(OCCCCc3nnnn3C3CCCCC3)ccc2N1 [cilostazol] | little hypotriglyceridemic effect | hypotriglyceridemic effect is reported | unstable | lowered | return to former value after transient elevation
O=C(O)C[C@H](O)C[C@H](O)/C=C/c1c(C2CC2)nc2ccccc2c1-c1ccc(F)cc1 [pitavastatin, (3R, 5S, 6E)-7-[2-cycloropyl-4-(4-fluorophenyl)-3-quinolyl]-3,5-dihydroxy-6-heptenoic acid] | extremely weak | – | – | – | –
